Values of other authors as cited in patent US20210128691A1 (priority 2019, published 2021).
Each block holds one molecule with its values, some of them ahead of it.

What was measured:
cyclic nucleotide PDE = conditions: rats made hypothyroid with increased PDE activity
pre-eclampsia = conditions: dietary supplements, high risk patients
[1] = in vivo

- time to peak levels following ingestion: one to two
- rise of serum concentration (amount of drug in circulation) (following ingestion): 250% to 600
SMILES: N[C@@H](Cc1cc(I)c(Oc2ccc(O)c(I)c2)c(I)c1)C(=O)O [T3, L-tri-iodothyronine]
- PDE activity after administration (cyclic nucleotide PDE): returned to normal

SMILES: N=C(N)NCCC[C@H](N)C(=O)O [L-arginine]
- incidence of PE (pre-eclampsia): significantly reduce, but not eliminate

- half-life [1]: 120 to 170 h
SMILES: N[C@@H](Cc1cc(I)c(Oc2cc(I)c(O)c(I)c2)c(I)c1)C(=O)O [T4, L-thyroxine]

- half-life [1]: 17 to 18 h
SMILES: CN1CC(=O)N2[C@H](c3ccc4c(c3)OCO4)c3[nH]c4ccccc4c3C[C@@H]2C1=O [tadalafil]
